The values below come from PubChem BioAssay (NCI).

Each structure is given as a SMILES string.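 48-hour exposure; five concentrations; linearly interpolated endpoints. GI50 marks 50% less growth. The concentration for full growth arrest is given as TGI.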 Some results are limits rather than exact numbers.

Among the test systems are KM12 colon; COLO 205 colon; M14 melanoma; HCT-116 colon; OVCAR-8 ovarian; SNB-19 CNS; UACC-257 melanoma; CCRF-CEM leukemia; RXF 393 renal; MALME-3M melanoma.
Holding throughout (assay): NCI tumour cell line growth inhibition, 48 h

As to `CCCCCC/C=C\CCCCCCCCCc1c(O)c(OC)cc(O)c1CN(C)C`, the TGI was 11.7 µM in the experiment with KM12 colon; 4.43 µM in the experiment with COLO 205 colon; 27.8 µM in the experiment with M14 melanoma; 22 µM with HCT-116 colon; 23.8 µM in the experiment on OVCAR-8 ovarian; 26.5 µM in the experiment on SNB-19 CNS. In addition, the TGI is 29.3 µM in the experiment with UACC-257 melanoma and 2.87 µM in the experiment with CCRF-CEM leukemia.
Regarding `CSc1ccc(C(=O)/C=C/c2ccc(F)cc2)cc1`, the GI50 in the experiment on RXF 393 renal is over 100 µM; in the experiment with KM12 colon it was 70.9 µM; with COLO 205 colon, over 100 µM; in the experiment with M14 melanoma it was over 100 µM; in the experiment on HCT-116 colon it was 20.7 µM; with OVCAR-8 ovarian it was over 100 µM. Moreover, the GI50 in the experiment on SNB-19 CNS was over 100 µM; in the experiment with UACC-257 melanoma, over 100 µM; with CCRF-CEM leukemia, 25.5 µM. For the same compound, the TGI was over 100 µM in the experiment with RXF 393 renal; over 100 µM in the experiment on KM12 colon; over 100 µM with COLO 205 colon; over 100 µM in the experiment with M14 melanoma; 36.6 µM with HCT-116 colon; over 100 µM with OVCAR-8 ovarian. Further, the results for the TGI in the experiment with SNB-19 CNS, in the experiment on UACC-257 melanoma and in the experiment with CCRF-CEM leukemia were over 100 µM, over 100 µM and 82.6 µM, respectively.
Turning to `CCC(C)c1cnc(CC(C)C)c(=O)[nH]1` (stereo not drawn), the TGI in the experiment with RXF 393 renal, in the experiment on KM12 colon, in the experiment with COLO 205 colon, in the experiment on M14 melanoma, in the experiment with HCT-116 colon and in the experiment with OVCAR-8 ovarian was over 100 µM in each case. Besides, the TGI in the experiment on SNB-19 CNS, in the experiment on UACC-257 melanoma and in the experiment with CCRF-CEM leukemia was over 100 µM in each case.
`CC1CCC(C#N)(NOC2=NCCN2)CC1` (stereo not drawn): the GI50 is over 100 µM in the experiment on RXF 393 renal; 42.6 µM in the experiment with KM12 colon; 36 µM in the experiment with COLO 205 colon; 46.4 µM in the experiment with M14 melanoma; 63.8 µM in the experiment on HCT-116 colon; 29.2 µM with OVCAR-8 ovarian. For the same compound, the GI50 was over 100 µM in the experiment with SNB-19 CNS, over 100 µM in the experiment with UACC-257 melanoma and 56 µM in the experiment on CCRF-CEM leukemia. Further, the TGI in the experiment with RXF 393 renal, with KM12 colon, in the experiment on COLO 205 colon, in the experiment on M14 melanoma, in the experiment with HCT-116 colon and in the experiment on OVCAR-8 ovarian was over 100 µM in each case. Moreover, the TGI in the experiment with SNB-19 CNS, in the experiment with UACC-257 melanoma and in the experiment with CCRF-CEM leukemia was over 100 µM in each case.
For `COc1cc(C(=O)/C=C/c2c(-c3cccs3)nc3ccccn23)cc(OC)c1OC`, the GI50 was 1.32 µM in the experiment with KM12 colon; 1.77 µM in the experiment on COLO 205 colon; 3.65 µM in the experiment on MALME-3M melanoma; 1.63 µM with HCT-116 colon; 1.68 µM in the experiment on OVCAR-8 ovarian; 2.1 µM with SNB-19 CNS. The GI50 in the experiment on UACC-257 melanoma was 1.88 µM; in the experiment with CCRF-CEM leukemia, 1.66 µM. For the same compound, the TGI was 2.79 µM in the experiment with KM12 colon; 3.2 µM in the experiment on COLO 205 colon; 21.7 µM in the experiment with MALME-3M melanoma; 3.08 µM in the experiment on HCT-116 colon; 6.31 µM in the experiment with OVCAR-8 ovarian; 5.56 µM with SNB-19 CNS. Further, the TGI in the experiment with UACC-257 melanoma is 4.46 µM; with CCRF-CEM leukemia it was 6.85 µM.
On to `Nc1n[n+]([O-])c2cnccc2[n+]1[O-]`, for which the TGI in the experiment on KM12 colon, in the experiment with COLO 205 colon, in the experiment on M14 melanoma, with HCT-116 colon, in the experiment with OVCAR-8 ovarian and with SNB-19 CNS was over 100 µM each time. Moreover, the TGI in the experiment with UACC-257 melanoma was 77.9 µM; with CCRF-CEM leukemia, over 100 µM.
Take `CCOC(CN(C)C(=O)OCC(Cl)(Cl)Cl)OCC`: the TGI in the experiment with RXF 393 renal, in the experiment with KM12 colon, in the experiment with COLO 205 colon, with M14 melanoma, with HCT-116 colon and with OVCAR-8 ovarian was over 100 µM throughout. Further, the TGI in the experiment on SNB-19 CNS, with UACC-257 melanoma and in the experiment with CCRF-CEM leukemia was over 100 µM each time.
As for `O=C(Cc1nc2ccccc2s1)C(=O)Nc1ccc(Cl)cc1Cl`, the TGI with KM12 colon, in the experiment on COLO 205 colon, with M14 melanoma, with MALME-3M melanoma, in the experiment on HCT-116 colon and with OVCAR-8 ovarian was over 100 µM each time. Further, the TGI with SNB-19 CNS and in the experiment with UACC-257 melanoma was over 100 µM in each case.
Regarding `CC(=O)Oc1cc(OC(C)=O)c2cc3c(cc2c1OC(C)=O)C(=O)C1(CCCC1)C3=O`, the TGI with RXF 393 renal came out at 31.3 µM; with COLO 205 colon it was 33.9 µM; in the experiment with M14 melanoma it was 32.1 µM; in the experiment on MALME-3M melanoma, 33.6 µM; in the experiment with OVCAR-8 ovarian it was 31.6 µM.
Turning to `C/C(CC(=O)Nc1ccc(NC(=O)/C(C)=N/NS(=O)(=O)c2ccc(C)cc2)cc1)=N\NS(=O)(=O)c1ccc(C)cc1`, the TGI in the experiment on RXF 393 renal, in the experiment with KM12 colon, in the experiment with COLO 205 colon, with M14 melanoma, in the experiment with MALME-3M melanoma and in the experiment with HCT-116 colon was over 100 µM throughout. The TGI in the experiment on OVCAR-8 ovarian and in the experiment on UACC-257 melanoma was over 100 µM in each case.
As to `N#CNc1nc(C(=O)Nc2ccc(Cl)cc2)cc(-c2ccccc2)n1`, the TGI with RXF 393 renal, in the experiment on KM12 colon, in the experiment with M14 melanoma, in the experiment with MALME-3M melanoma, in the experiment on HCT-116 colon and with OVCAR-8 ovarian was over 100 µM each time. Moreover, the TGI in the experiment with SNB-19 CNS and with UACC-257 melanoma was over 100 µM throughout.
Consider `COc1ccc2nc(C3=CN(C4OC(CO)C(O)C(O)C4O)C4C=CC=CC34)sc2c1` (stereo not drawn), for which the GI50 with RXF 393 renal was 34.6 µM; with KM12 colon it was 24.1 µM; with COLO 205 colon it was 27.2 µM; in the experiment on M14 melanoma, 33 µM; with HCT-116 colon it was 22.7 µM; in the experiment with OVCAR-8 ovarian, 25.2 µM. Moreover, the GI50 was 46.8 µM in the experiment on SNB-19 CNS, 28 µM with UACC-257 melanoma and 42.4 µM in the experiment with CCRF-CEM leukemia. The TGI in the experiment with RXF 393 renal is over 100 µM; with KM12 colon, 75.7 µM; in the experiment on COLO 205 colon, over 100 µM; in the experiment with M14 melanoma, 93.8 µM; with HCT-116 colon it was 81.7 µM; in the experiment with OVCAR-8 ovarian it was 77.8 µM. Also, the figures for the TGI with SNB-19 CNS, in the experiment with UACC-257 melanoma and in the experiment on CCRF-CEM leukemia were over 100 µM, 89.3 µM and over 100 µM, respectively.
